Data: patent US4492757A, “Process for preparing L-threonine” (Denki Kagaku Kogyo Kabushiki Kaisha, priority 1981, dated 1985)

Legend:
D-threonine-aldolase = test: Agents inhibiting, activating or stabilizing the activity of the novel enzyme; format: biochemical
L-allothreonine-aldolase = test: Inhibitants, stabilizers and coenzyme of L-allothreonine-aldolase; format: biochemical

Structure (SMILES) | effect of the agent on the activity of the novel enzyme (D-threonine-aldolase) | effect of the agent on L-allothreonine-aldolase (L-allothreonine-aldolase) | coenzyme (L-allothreonine-aldolase)
[Ag+] [Ag^+] | inhibited | Inhibitants | –
O=C(O)c1cc[c]([Hg][Cl])cc1 [p-chloromercuribenzoate] | inhibited | – | –
[Mg+2] [Mg^2+] | activated and stabilized | – | –
[Cu+2] [Cu^2+] | inhibited | Inhibitants | –
NO [hydroxylamine] | inhibited | – | –
[Fe+2] [Fe^2+] | activated and stabilized | – | –
O=S([O-])O.[Na+] [sodium hydrogen sulfite] | activated and stabilized | – | –
[Co+2] [Co^2+] | activated and stabilized | – | –
[Hg+2] [Hg^2+] | inhibited | Inhibitants | –
O=S([O-])[O-].[Na+].[Na+] [sodium sulfite] | activated and stabilized | Stabilizers | –

The next lines start with the values.

effect of the agent on the activity of the novel enzyme (D-threonine-aldolase) | effect of the agent on L-allothreonine-aldolase (L-allothreonine-aldolase) | coenzyme (L-allothreonine-aldolase) | Structure (SMILES)
activated and stabilized | Stabilizers | – | O[C@H](CS)[C@H](O)CS (racemic) [dithiothreitol]
activated and stabilized | – | – | [Mn+2] [Mn^2+]
– | – | Coenzyme | Cc1ncc(COP(=O)(O)O)c(C=O)c1O [pyridoxal-5'-phosphate]
inhibited | – | – | [Zn+2] [Zn^2+]
inhibited | – | – | [Pd+2] [Pd^2+]
activated and stabilized | Stabilizers | – | OCCS [mercaptoethanol]
